Laboratory results taken from ChEMBL document CHEMBL5137042, “Tetrahydropyridin-4-ylpicolinoylglycines as novel and orally active prolyl hydroxylase 2 (PHD2) inhibitors for the treatment of renal anemia” (Eur J Med Chem, 2022).
Calls of active or inactive are those of the source. The calls are words filed in the database; no cut-off is given here.

Tests used:
[1] = target: Egl nine homolog 1 (Homo sapiens, UniProt Q9GZT9); assay: Inhibition of PHD2 (181 to 426 residue) (unknown origin) measured by fluorescence polarization assay
[2] = Cytotoxicity against human Hep3B cells assessed as cell viability at 100 uM incubated for 24 hrs by CCK8 assay relative to control; type: toxicity, cell-based, Hep 3B2; settings: read-out: Activity
[3] = tested on: Hep3B; assay: Induction of HIF-alpha stabilization in human Hep3B cells assessed as fold increase in EPO transcriptional activity at 5 uM incubated for 12 hrs by qRT-PCR analysis; type: cell-based
[4] = tested on: Mus musculus; assay: Induction of reticulocytes production in C57BL/6 mouse at 20 mg/kg, po measured at day 3 and 3 days post-dose; type: functional, organism-based; settings: time 3.0 day
[5] = tested on: Mus musculus; assay: Induction of reticulocytes production in po dosed C57BL/6 mouse measured at day 3 and 3 days post-dose; type: functional, organism-based; settings: dose 10-50 mg/kg, time 3.0 day, DDE = dose-dependent effect
[6] = Toxicity in ICR mouse assessed as increase in body weight at 15 to 100 mg/kg, po administered every other day and measured upto 14 days; type: organism-based; settings: in vivo, 336 h, dose 15-100 mg/kg, time < 14 day
[7] = Toxicity in male ICR mouse assessed as change in lung to body weight ratio at 15 to 100 mg/kg, po administered every other day and measured after 14 days; type: organism-based; settings: in vivo, 336 h, dose 15-100 mg/kg, time 14 day
[8] = Toxicity in male ICR mouse assessed as change in heart to body weight ratio at 15 to 100 mg/kg, po administered every other day and measured after 14 days; type: organism-based; settings: in vivo, 336 h, dose 15-100 mg/kg, time 14 day
[9] = Toxicity in male ICR mouse assessed as change in liver to body weight ratio at 15 to 100 mg/kg, po administered every other day and measured after 14 days; type: organism-based; settings: in vivo, 336 h, dose 15-100 mg/kg, time 14 day
[10] = Toxicity in male ICR mouse assessed as change in kidney to body weight ratio at 15 to 100 mg/kg, po administered every other day and measured after 14 days; type: organism-based; settings: in vivo, 336 h, dose 15-100 mg/kg, time 14 day
[11] = Toxicity in male ICR mouse assessed as change in spleen to body weight ratio at 15 to 100 mg/kg, po administered every other day and measured after 14 days; type: organism-based; settings: in vivo, 336 h, dose 15-100 mg/kg, time 14 day
[12] = Toxicity in female ICR mouse assessed as change in lung to body weight ratio at 15 to 100 mg/kg, po administered every other day and measured after 14 days; type: organism-based; settings: in vivo, 336 h, dose 15-100 mg/kg, time 14 day
[13] = Toxicity in female ICR mouse assessed as change in heart to body weight ratio at 15 to 100 mg/kg, po administered every other day and measured after 14 days; type: organism-based; settings: in vivo, 336 h, dose 15-100 mg/kg, time 14 day
[14] = Toxicity in female ICR mouse assessed as change in liver to body weight ratio at 15 to 100 mg/kg, po administered every other day and measured after 14 days; type: organism-based; settings: in vivo, 336 h, dose 15-100 mg/kg, time 14 day
[15] = Toxicity in female ICR mouse assessed as change in kidney to body weight ratio at 15 to 100 mg/kg, po administered every other day and measured after 14 days; type: organism-based; settings: in vivo, 336 h, dose 15-100 mg/kg, time 14 day
[16] = Toxicity in female ICR mouse assessed as change in spleen to body weight ratio at 15 to 100 mg/kg, po administered every other day and measured after 14 days; type: organism-based; settings: in vivo, 336 h, dose 15-100 mg/kg, time 14 day
[17] = Renal toxicity in ICR mouse assessed as effect on BUN level at 15 to 100 mg/kg, po administered every other day and measured after 14 days; type: organism-based; settings: in vivo, 336 h, dose 15-100 mg/kg, time 14 day
[18] = Renal toxicity in ICR mouse assessed as effect on […] level at 15 to 100 mg/kg, po administered every other day and measured after 14 days; type: organism-based; settings: in vivo, 336 h, dose 15-100 mg/kg, time 14 day
[19] = Hepatotoxicity in ICR mouse assessed as effect on […] level at 15 to 100 mg/kg, po administered every other day and measured after 14 days; type: toxicity, organism-based; settings: in vivo, 336 h, dose 15-100 mg/kg, time 14 day
[20] = Hepatotoxicity in ICR mouse assessed as effect on ALT level at 15 to 100 mg/kg, po administered every other day and measured after 14 days; type: toxicity, organism-based; settings: in vivo, 336 h, dose 15-100 mg/kg, time 14 day
[21] = Toxicity in ICR mouse assessed as heart edema at 15 to 100 mg/kg, po administered every other day and measured after 14 days by H and E staining method; type: organism-based; settings: in vivo, 336 h, dose 15-100 mg/kg, time 14 day
[22] = Toxicity in ICR mouse assessed as liver edema at 15 to 100 mg/kg, po administered every other day and measured after 14 days by H and E staining method; type: organism-based; settings: in vivo, 336 h, dose 15-100 mg/kg, time 14 day
[23] = Toxicity in ICR mouse assessed as lung edema at 15 to 100 mg/kg, po administered every other day and measured after 14 days by H and E staining method; type: organism-based; settings: in vivo, 336 h, dose 15-100 mg/kg, time 14 day
[24] = Toxicity in ICR mouse assessed as spleen edema at 15 to 100 mg/kg, po administered every other day and measured after 14 days by H and E staining method; type: organism-based; settings: in vivo, 336 h, dose 15-100 mg/kg, time 14 day
[25] = Toxicity in ICR mouse assessed as kidney edema at 15 to 100 mg/kg, po administered every other day and measured after 14 days by H and E staining method; type: organism-based; settings: in vivo, 336 h, dose 15-100 mg/kg, time 14 day

Sequence of Egl nine homolog 1 (Q9GZT9 whole entry): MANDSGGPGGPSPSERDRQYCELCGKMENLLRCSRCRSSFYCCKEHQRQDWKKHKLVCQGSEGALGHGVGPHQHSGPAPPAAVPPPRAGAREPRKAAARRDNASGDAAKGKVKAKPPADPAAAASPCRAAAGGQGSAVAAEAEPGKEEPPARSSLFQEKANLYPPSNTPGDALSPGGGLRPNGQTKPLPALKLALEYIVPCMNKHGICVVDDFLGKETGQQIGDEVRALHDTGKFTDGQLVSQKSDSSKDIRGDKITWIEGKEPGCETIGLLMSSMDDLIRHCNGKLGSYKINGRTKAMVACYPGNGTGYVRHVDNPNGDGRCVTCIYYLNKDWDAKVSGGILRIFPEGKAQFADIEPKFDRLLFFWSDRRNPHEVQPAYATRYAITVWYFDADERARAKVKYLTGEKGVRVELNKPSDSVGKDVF

SMILES: O=C(O)CNC(=O)c1ncc(C2=CCN(S(=O)(=O)c3cccnc3)CC2)cc1O
- IC50 [1]: 51.2 nM

SMILES: Cc1ccc(S(=O)(=O)N2CC=C(c3cnc(C(=O)NCC(=O)O)c(O)c3)CC2)cc1
- IC50 [1]: 45.3 nM

SMILES: O=C(O)CNC(=O)c1ncc(C2=CCN(S(=O)(=O)c3ccc4ccccc4c3)CC2)cc1O
- IC50 [1]: 97.4 nM

SMILES: O=C(O)CNC(=O)c1ncc(C2=CCN(S(=O)(=O)c3cccc4ccccc34)CC2)cc1O
- IC50 [1]: 22.4 nM

SMILES: O=C(O)CNC(=O)c1ncc(C2=CCN(S(=O)(=O)c3ccc(F)cc3)CC2)cc1O
- IC50 [1]: 43.5 nM

SMILES: O=C(O)CNC(=O)c1ncc(C2=CCN(S(=O)(=O)c3ccc(C(F)(F)F)cc3)CC2)cc1O
- IC50 [1]: 72.3 nM

SMILES: O=C(O)CNC(=O)c1ncc(C2=CCN(S(=O)(=O)c3ccc(Cl)cc3)CC2)cc1O
- IC50 [1]: 27 nM

SMILES: O=C(O)CNC(=O)c1ncc(C2=CCN(S(=O)(=O)c3ccccc3F)CC2)cc1O
- IC50 [1]: 82.8 nM

SMILES: O=C(O)CNC(=O)c1ncc(C2=CCN(C(=O)Nc3ccc(Cl)cc3)CC2)cc1O
- IC50 [1]: 27 nM

SMILES: O=C(O)CNC(=O)c1ncc(C2=CCN(S(=O)(=O)Cc3ccc(Br)cc3)CC2)cc1O
- IC50 [1]: 6.95 nM
- viability at 24 h, 100 µM [2]: > 80%
- FC [3]: 2
- Activity [4]: Active

SMILES: O=C(O)CNC(=O)c1ncc(C2CCN(Cc3ccc(Cl)cc3)CC2)cc1O
- IC50 [1]: 588 nM

SMILES: CC(C)(C)c1ccc(S(=O)(=O)N2CC=C(c3cnc(C(=O)NCC(=O)O)c(O)c3)CC2)cc1
- IC50 [1]: 796 nM

SMILES: O=C(O)CNC(=O)c1ncc(C2=CCN(S(=O)(=O)c3cccs3)CC2)cc1O
- IC50 [1]: 46.5 nM

SMILES: N#Cc1ccc(S(=O)(=O)N2CC=C(c3cnc(C(=O)NCC(=O)O)c(O)c3)CC2)cc1
- IC50 [1]: 20.7 nM

SMILES: O=C(O)CNC(=O)c1ncc(C2=CCN(S(=O)(=O)c3cccc(F)c3)CC2)cc1O
- IC50 [1]: 141 nM

SMILES: O=C(O)CNC(=O)c1ncc(C2=CCN(S(=O)(=O)Cc3ccc(F)cc3)CC2)cc1O
- IC50 [1]: 6.31 nM
- viability at 24 h, 100 µM [2]: > 80%
- Activity [4]: Active

SMILES: O=C(O)CNC(=O)c1ncc(C2=CCN(S(=O)(=O)c3ccc(Br)cc3)CC2)cc1O
- IC50 [1]: 29.7 nM

SMILES: O=C(O)CNC(=O)c1ncc(C2=CCN(S(=O)(=O)c3ccccc3)CC2)cc1O
- IC50 [1]: 132 nM

SMILES: O=C(O)CNC(=O)c1ncc(C2=CCN(S(=O)(=O)c3ccc(OC(F)(F)F)cc3)CC2)cc1O
- IC50 [1]: 50.9 nM

SMILES: O=C(O)CNC(=O)c1ncc(C2=CCN(S(=O)(=O)Cc3ccccc3)CC2)cc1O
- IC50 [1]: 18.2 nM

SMILES: O=C(O)CNC(=O)c1ncc(C2=CCN(S(=O)(=O)Cc3ccc(C(F)(F)F)cc3)CC2)cc1O
- IC50 [1]: 7.97 nM
- viability at 24 h, 100 µM [2]: > 80%
- Activity [4]: Active

SMILES: O=C(O)CNC(=O)c1ncc(C2=CCN(C(=O)c3ccc(Cl)cc3)CC2)cc1O
- IC50 [1]: 25 nM

SMILES: O=C(O)CNC(=O)c1ncc(C2=CCN(S(=O)(=O)Cc3ccc(OC(F)(F)F)cc3)CC2)cc1O
- IC50 [1]: 6.55 nM
- viability at 24 h, 100 µM [2]: > 80%
- Activity [4]: Active
- Activity [5]: Dde
- Activity [6]: Non-Toxic
- Activity [7]: Non-Toxic
- Activity [8]: Non-Toxic
- Activity [9]: Non-Toxic
- Activity [10]: Non-Toxic
- Activity [11]: Non-Toxic
- Activity [12]: Non-Toxic
- Activity [13]: Non-Toxic
- Activity [14]: Non-Toxic
- Activity [15]: Non-Toxic
- Activity [16]: Non-Toxic
- Activity [17]: Non-Toxic
- Activity [18]: Non-Toxic
- Activity [19]: Non-Toxic
- Activity [20]: Non-Toxic
- Activity [21]: Non-Toxic
- Activity [22]: Non-Toxic
- Activity [23]: Non-Toxic
- Activity [24]: Non-Toxic
- Activity [25]: Non-Toxic

SMILES: O=C(O)CNC(=O)c1ncc(C2=CCN(Cc3ccc(Cl)cc3)CC2)cc1O
- IC50 [1]: 73.9 nM

SMILES: O=C(O)CNC(=O)c1ncc(C2=CCN(S(=O)(=O)Cc3ccc(Cl)cc3)CC2)cc1O
- IC50 [1]: 6.14 nM
- viability at 24 h, 100 µM [2]: > 80%
- Activity [4]: Active
